Series [1] deals with T1, mGluR1 (Macaca mulatta, UniProt I2CU04).
T1 construct: P2 membrane fractions were prepared from the cerebella of; from tissue; host or cells: rhesus monkey cerebellum, P2 membrane fraction
Kind of series: Saturation binding assay with [^3H]LY456066, monkey cerebellar membranes. Further details: species or system rhesus monkeys. To be noted: monkeys. The protocol:
(§1) P2 membrane fractions were prepared from the cerebella of male Sprague–Dawley rats (n = 3), male rhesus monkeys (n = 3), and female humans (n = 4). […] Nonspecific binding was defined by heterologous displacement of 1 μM LY480084 (mGlu1 antagonist) in select wells. Plates were incubated on ice for 75 min and membranes harvested on 0.3% polyethylenimine pretreated Wallac filter mats using a Tomtec Harvester MachII (Tomtec, Hamden, CT, USA). Dissociation constant (KD) and receptor density (Bmax) values were obtained in GraphPad Prism using standard nonlinear one-site binding equations. Data are presented as mean ± SEM (n = 3 to 4); one-way analysis of variance followed by Tukey's post hoc test.

The conditions of series [2]: room temperature, octanol; cited from earlier work.
Series [3] concerns the target mGluR1 (Homo sapiens, UniProt Q13255). Kind of series: Saturation binding assay with [^3H]LY456066, human cerebellar membranes. Further details: P2 membrane fractions were prepared from the cerebella of; from tissue; host or cells: human cerebellum, P2 membrane fraction. The note with it: humans. The protocol:
as §1

On the set-up of series [4]: method as in PMID 23135321. To be noted: rats; cited from earlier work.
Series [5] in a line: In vitro stability in human blood and plasma. It counts as in vitro ADME. To be noted: room temperature, 30 min. The protocol:
(§2) Nonradioactive anticoagulated blood was obtained on the day of study from either human or nonhuman primates. Aliquots of ^11C-LY2428703 (about 150 kBq) were added to 0.5 mL of whole blood or 0.5 mL of plasma. Samples were incubated at room temperature for 30 min, after which either 450 μL of the radioactive plasma was added to 720 μL of acetonitrile or 200 μL of the radioactive whole blood was added to 300 μL of water. The tube containing the blood suspension was shaken well to mix and lyse the blood cells. Seven hundred and twenty microliters of acetonitrile was subsequently added and mixed well to precipitate the proteins, followed by 100 μL of water, which was again re-mixed. Radioactivity in the tubes was measured in a gamma counter and then centrifuged at 10,000×g for 1 min. The clear supernatant liquid was injected into the high-performance liquid chromatography (HPLC) column and the precipitate counted to calculate the recovery of radioactivity into the acetonitrile.
(§3) The stability of the radioligand in whole blood or plasma was calculated as the ratio of the HPLC % composition of samples divided by the radiochemical purity of the radioligand.

The next series concerns P-gp. Further details: method as in PMID 23135321. To be noted: previous in vitro analyses; cited from earlier work.
Series [6] in a line: Arterial plasma analysis after injection, human. It counts as in vivo. On the procedure: Plasma analyses were performed on a reverse-phase chromatography C18 column (Novapak, 4 μm, 100 × 8 mm, Waters Corp. Milford, MA, USA) using Radial-Pak® compression module RCM-100 with a sentry pre-column. Human plasma analyses were performed with a mobile phase of […], at a flow rate of 2.5 mL/min; nonhuman primate plasma samples were analyzed with a mobile phase of MeOH/H2O/Et3N, 72.5:27.5:0.1 by volume, at a flow rate of 1.5 mL/min. To compare the outcome from both systems, elution volume is reported rather than retention time.
Arterial plasma was analyzed as previously described. Briefly, after ^11C-LY2428703 injection into either human or nonhuman primate, the input function was determined by periodically drawing anticoagulated blood samples. Blood aliquots were removed so that the γ-counter could provide information necessary for vascular correction. The remaining blood was then centrifuged, and plasma (450 μL) aliquots were removed and placed in acetonitriles (720 μL/ea) spiked with carrier LY2428703. The samples were mixed well, 100 μL water aliquots were added, and then, the sample was further mixed. The samples were counted in the γ-counter and centrifuged at 10,000×g for 1 min. The clear supernatant liquids were injected onto the radio-HPLC as described above. The precipitates were then counted for radioactivity to allow the calculation of the efficiency of recovery of radioactivity in the acetonitrile. Human plasma samples were separated with a mobile phase of higher polarity ([…]) to ensure that the parent radiochromatographic peak comprised a single radiochemical species.
(§4) PET images were acquired using the GE Advance scanner (GE Healthcare, Milwaukee, WI, USA) for 120 min. An 8-min ^68Ge transmission scan was obtained before the injection of the radiotracer for attenuation correction. The mean injected activity was 328 ± 12 MBq. The specific activity at the time of injection was 87.2 ± 34.7 GBq/μmol, which corresponded to 5.5 ± 2.3 nmol (0.082 ± 0.037 nmol/kg) of carrier. Blood samples (1 mL each) were drawn from the radial artery at 15-s intervals until 150 s, followed by 3-mL samples at 3, 4, 6, 8, 10, 15, 20, 30, 40, and 50 min, and 4.5 mL at 60, 75, 90, and 120 min. The unchanged parent fraction in plasma and fP of ^11C-LY2428703 were determined as described above.

The nature of series [7]: Plasma free fraction by ultrafiltration, human. It counts as in vitro ADME. To be noted: humans, n = 3. The protocol: The plasma free fraction (fp) of ^11C-LY2428703 was measured by ultrafiltration through membrane filters (Centrifree; Millipore, Billerica, MA, USA) as previously described. Briefly, about 740 kBq of ^11C-LY2428703 (approximately 5 μL) was added to 650 μL of plasma. The mixture was incubated at room temperature for 10 min and then processed as described previously. When radioactivities for the filter components were high, they were allowed to decay until they were within the optimal range of the γ-counter. Determining the free fraction during preblocking was done by drawing blood samples after the preblocking treatments were initiated but immediately before administering the radioligand.
as §4

For series [8], the target named is T2, mGluR1 (Rattus norvegicus, UniProt P23385).
T2 construct: P2 membrane fractions were prepared from the cerebella of male Sprague–Dawley rats; from tissue; host or cells: rat cerebellum, P2 membrane fraction
T2 sequence (P23385 19-1199): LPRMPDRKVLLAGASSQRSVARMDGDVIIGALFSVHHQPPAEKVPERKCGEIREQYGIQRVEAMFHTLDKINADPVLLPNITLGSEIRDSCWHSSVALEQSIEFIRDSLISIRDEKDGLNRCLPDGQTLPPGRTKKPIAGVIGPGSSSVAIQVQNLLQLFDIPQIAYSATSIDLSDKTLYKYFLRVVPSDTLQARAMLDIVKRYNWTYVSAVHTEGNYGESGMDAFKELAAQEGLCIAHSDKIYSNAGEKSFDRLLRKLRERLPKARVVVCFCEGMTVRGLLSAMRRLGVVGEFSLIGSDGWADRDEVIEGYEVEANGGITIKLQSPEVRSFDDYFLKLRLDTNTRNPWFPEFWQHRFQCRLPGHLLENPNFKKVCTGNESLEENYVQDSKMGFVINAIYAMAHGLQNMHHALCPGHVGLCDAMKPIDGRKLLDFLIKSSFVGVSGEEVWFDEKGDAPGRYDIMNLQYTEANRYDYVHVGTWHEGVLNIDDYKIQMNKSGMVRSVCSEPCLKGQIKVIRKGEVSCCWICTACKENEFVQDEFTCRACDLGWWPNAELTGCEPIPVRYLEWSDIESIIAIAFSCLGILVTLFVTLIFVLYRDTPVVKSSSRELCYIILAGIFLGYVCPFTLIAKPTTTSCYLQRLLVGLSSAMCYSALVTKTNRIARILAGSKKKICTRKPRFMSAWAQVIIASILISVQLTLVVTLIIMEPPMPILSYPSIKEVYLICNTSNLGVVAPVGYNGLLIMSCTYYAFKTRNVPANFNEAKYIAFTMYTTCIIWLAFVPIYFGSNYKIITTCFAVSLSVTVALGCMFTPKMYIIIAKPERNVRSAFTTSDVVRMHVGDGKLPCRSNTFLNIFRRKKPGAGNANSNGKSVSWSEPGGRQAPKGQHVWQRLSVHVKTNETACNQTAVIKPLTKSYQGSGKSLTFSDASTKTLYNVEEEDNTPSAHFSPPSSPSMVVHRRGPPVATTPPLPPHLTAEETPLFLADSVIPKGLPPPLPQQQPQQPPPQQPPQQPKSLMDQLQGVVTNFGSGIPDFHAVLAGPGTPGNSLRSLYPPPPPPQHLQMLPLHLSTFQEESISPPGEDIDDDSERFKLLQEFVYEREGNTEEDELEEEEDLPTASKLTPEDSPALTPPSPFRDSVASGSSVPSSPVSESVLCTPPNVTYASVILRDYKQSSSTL
Kind of series: Saturation binding assay with [^3H]LY456066, rat cerebellar membranes. Further details: species or system Sprague–Dawley rats. To be noted: rats; fp from ref 10. The protocol: as §1

A short description of series [9]: In vitro stability in nonhuman primate blood and plasma. It counts as in vitro ADME. To be noted: monkey, room temperature. On the procedure:
as §2, §3

Structures are written as SMILES. Like-named read-outs stand apart in the source and are kept apart here. Marks after values point to notes of the source that are not given here.

T1 sequence (I2CU04 19-1195): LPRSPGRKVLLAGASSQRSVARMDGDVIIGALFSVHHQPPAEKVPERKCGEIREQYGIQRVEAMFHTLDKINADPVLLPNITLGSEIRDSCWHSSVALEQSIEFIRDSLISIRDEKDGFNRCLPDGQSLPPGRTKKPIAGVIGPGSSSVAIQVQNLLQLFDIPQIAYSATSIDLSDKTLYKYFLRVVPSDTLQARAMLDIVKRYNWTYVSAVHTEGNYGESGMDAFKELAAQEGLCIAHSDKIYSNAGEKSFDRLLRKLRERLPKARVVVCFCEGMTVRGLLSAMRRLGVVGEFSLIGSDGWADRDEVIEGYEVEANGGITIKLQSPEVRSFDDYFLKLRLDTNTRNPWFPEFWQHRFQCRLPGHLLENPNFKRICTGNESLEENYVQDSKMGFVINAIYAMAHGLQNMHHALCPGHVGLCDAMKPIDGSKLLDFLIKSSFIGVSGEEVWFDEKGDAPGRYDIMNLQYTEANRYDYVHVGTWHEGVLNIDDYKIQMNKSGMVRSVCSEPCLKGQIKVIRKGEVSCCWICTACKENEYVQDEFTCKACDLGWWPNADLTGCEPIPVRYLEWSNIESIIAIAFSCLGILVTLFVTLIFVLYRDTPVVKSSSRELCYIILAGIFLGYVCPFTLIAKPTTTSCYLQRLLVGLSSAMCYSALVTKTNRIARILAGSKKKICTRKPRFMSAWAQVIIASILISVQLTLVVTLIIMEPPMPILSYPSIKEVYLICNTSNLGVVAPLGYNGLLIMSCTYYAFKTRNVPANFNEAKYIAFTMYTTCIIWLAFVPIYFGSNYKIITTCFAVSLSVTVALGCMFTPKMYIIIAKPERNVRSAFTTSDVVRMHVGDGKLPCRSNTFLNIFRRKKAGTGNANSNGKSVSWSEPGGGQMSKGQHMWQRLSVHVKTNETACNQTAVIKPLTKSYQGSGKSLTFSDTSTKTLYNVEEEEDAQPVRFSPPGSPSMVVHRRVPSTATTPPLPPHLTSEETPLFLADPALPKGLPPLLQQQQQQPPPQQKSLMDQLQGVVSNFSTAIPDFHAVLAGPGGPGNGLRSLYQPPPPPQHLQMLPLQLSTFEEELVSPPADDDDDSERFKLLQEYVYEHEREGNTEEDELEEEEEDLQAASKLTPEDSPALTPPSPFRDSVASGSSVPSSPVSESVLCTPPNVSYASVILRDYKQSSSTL
Sequence of mGluR1 (Homo sapiens, UniProt Q13255) (Q13255 19-1194): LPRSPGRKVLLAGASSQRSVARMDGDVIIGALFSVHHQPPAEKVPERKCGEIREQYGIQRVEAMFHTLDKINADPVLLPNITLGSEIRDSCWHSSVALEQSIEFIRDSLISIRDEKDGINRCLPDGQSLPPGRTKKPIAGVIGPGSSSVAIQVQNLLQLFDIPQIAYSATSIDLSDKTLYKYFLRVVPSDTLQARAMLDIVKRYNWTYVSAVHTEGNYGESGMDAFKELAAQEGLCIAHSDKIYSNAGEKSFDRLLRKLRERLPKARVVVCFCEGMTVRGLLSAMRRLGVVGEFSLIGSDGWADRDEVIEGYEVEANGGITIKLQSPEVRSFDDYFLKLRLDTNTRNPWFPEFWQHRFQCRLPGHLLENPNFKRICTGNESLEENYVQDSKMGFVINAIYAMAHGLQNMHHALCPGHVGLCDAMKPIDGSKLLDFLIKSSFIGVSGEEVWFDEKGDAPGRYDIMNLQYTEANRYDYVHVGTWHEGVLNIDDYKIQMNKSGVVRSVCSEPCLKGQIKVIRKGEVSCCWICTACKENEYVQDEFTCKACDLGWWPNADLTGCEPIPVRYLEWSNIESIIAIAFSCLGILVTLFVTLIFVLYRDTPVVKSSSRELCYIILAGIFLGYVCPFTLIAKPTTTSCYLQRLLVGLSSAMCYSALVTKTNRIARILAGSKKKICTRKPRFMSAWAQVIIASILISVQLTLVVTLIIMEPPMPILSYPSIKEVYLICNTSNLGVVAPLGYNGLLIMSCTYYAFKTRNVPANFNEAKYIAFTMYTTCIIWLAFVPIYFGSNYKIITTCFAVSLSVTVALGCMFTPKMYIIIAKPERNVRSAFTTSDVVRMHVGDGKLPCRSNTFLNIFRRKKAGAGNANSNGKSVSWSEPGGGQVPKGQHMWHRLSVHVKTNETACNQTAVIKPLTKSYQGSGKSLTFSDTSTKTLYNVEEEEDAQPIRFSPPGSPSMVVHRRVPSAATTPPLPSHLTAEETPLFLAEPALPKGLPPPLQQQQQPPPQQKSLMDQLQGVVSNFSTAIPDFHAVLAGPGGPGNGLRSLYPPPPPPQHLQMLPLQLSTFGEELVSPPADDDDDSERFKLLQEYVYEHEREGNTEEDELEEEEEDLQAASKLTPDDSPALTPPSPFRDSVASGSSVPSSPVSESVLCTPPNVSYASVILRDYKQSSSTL

Take `Cc1c(-c2ccc(O[11CH3])cc2)nsc1NC(=O)[C@@H]1C[C@H]1C` [^11C-LY2428703]: the entries for the “fp × Bmax/KD (=VS), effective BP” value at mGluR1 [1], on mGluR1 [3] and on mGluR1 [8] were 0.161, 0.016 and 0.683, respectively. Also, in [2], the LogD is reported as 4.02. For the same molecule, the “fp (plasma free fraction)” value in series [4] is 2.7^a %; in series [7] it was 0.094%. The tracer stability amounted to 99.4 ± 1.4% in series [5] (human plasma) and 99.5 ± 1.1% in series [5] (human whole blood). Besides, in the series with P-gp, the “substrate for P-gp” value was “not a substrate”. Further, the peak plasma concentration in series [6] worked out at 33 ± 5 SUV. Also, in series [6], the “time of peak plasma concentration” value is on record as 1.5 ± 0 min. Also, in series [6] (at 2 h), the radiometabolites in plasma entry is reported as “approximately 1%”. In addition, the “parent radioligand as share of total blood radioactivity” value in series [6] (entire 2-h imaging period) was roughly 99%. Moreover, the “stability in whole blood and plasma” value in series [9] is “completely stable”.

The term LogD denotes the decadic logarithm of the distribution of all forms, ionised or not, between an organic phase and buffer at a given pH.

Values taken from PMC3683333, “^11C-LY2428703, a positron emission tomographic radioligand for the metabotropic glutamate receptor 1, is unsuitable for imaging in monkey and human brains” (EJNMMI Research, 2013).
